Measurements taken from patent publication US9382254B2, “Compounds and pharmaceutical compositions thereof for the treatment of cystic fibrosis” (Galapagos NV, priority 2013, dated 2016).

Key:
Format in all cases: cell-based
CFTR ΔF508 mutant [1] = target: T1, CFTR ΔF508 mutant (Homo sapiens, UniProt P13569, DEL508-508); test: YFP-halide influx assay for the CFTR-ΔF508 mutation, gluconate buffer; settings: CFBE41o- cells, forskolin 10.67 μM
T1 construct: expressed in transfected cells; host or cells: CFBE41o- (adenoviral transduction)
T1 sequence (P13569 with tags, fused parts or gaps DEL508-508): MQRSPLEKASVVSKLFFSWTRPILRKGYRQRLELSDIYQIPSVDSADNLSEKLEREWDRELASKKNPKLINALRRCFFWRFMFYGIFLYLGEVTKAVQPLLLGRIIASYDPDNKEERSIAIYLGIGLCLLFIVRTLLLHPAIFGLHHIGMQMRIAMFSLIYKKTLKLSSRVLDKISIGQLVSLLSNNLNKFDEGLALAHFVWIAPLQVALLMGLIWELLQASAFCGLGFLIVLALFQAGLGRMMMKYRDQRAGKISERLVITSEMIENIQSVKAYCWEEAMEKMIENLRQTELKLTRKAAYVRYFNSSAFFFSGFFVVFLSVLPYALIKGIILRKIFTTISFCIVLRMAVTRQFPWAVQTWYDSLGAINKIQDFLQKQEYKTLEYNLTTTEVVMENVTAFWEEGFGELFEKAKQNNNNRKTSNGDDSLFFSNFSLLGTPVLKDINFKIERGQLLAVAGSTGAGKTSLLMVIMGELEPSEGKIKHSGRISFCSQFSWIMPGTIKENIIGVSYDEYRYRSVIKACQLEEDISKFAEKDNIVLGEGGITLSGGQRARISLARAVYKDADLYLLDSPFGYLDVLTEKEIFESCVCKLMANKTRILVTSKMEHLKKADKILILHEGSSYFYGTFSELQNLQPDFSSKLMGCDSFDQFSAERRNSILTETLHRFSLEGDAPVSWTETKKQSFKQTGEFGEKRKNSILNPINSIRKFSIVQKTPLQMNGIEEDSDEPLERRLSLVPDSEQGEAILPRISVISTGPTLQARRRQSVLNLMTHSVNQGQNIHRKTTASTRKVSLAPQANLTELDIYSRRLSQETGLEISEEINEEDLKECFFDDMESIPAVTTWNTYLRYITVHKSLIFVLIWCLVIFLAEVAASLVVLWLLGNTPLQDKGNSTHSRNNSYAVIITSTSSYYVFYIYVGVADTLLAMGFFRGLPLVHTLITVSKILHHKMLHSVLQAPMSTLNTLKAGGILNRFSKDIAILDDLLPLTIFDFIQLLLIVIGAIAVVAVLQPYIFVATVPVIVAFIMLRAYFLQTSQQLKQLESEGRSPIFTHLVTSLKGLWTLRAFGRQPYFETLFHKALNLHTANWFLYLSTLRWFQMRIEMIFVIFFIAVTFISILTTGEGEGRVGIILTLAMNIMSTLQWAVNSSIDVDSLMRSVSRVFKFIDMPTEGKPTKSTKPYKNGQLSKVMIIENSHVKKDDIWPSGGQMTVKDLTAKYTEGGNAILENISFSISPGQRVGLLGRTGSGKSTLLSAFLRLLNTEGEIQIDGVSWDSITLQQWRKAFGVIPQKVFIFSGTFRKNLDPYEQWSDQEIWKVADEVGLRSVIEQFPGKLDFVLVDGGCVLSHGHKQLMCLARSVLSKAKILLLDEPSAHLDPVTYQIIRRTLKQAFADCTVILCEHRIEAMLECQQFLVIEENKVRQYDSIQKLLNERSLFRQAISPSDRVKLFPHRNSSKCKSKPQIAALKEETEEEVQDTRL
Method in brief: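 CFBE41o- cells adenovirally transduced with CFTR ΔF508 and YFP H148Q/I152L, then held 24 h at 27 °C or treated with CFTR modulator 24 h at 37 °C. I− quenching recorded for 7 s after injection; activity as 1-F/F0, EC50 from concentration plot.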

CFTR ΔF508 mutant [2] = target: T1, CFTR ΔF508 mutant; test: YFP-halide influx assay for the CFTR-ΔF508 mutation (384 well, FDSS/μCell); settings: CFBE41o- cells, CFTR-ΔF508, 1×D-PBS, fluorescence after 36 seconds
Method in brief: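 Potentiator read-out as 1−F/F0, F taken 36 s after iodide addition, EC50 fitted against compound concentration. Cells: CFBE41o- expressing ΔF508 CFTR plus halide-sensitive YFP via adenovirus, rescued by 27 °C for 24 h or 24 h modulator at 37 °C.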

CFTR G551D mutant = target: T2, CFTR G551D mutant (Homo sapiens, UniProt P13569, G551D); test: YFP-halide influx assay for the CFTR-G551D mutation; settings: HEK293 cells, forskolin 10.67 μM
T2 construct: expressed in transfected cells; host or cells: HEK293 (reverse transfection with plasmid)
T2 sequence (P13569 whole entry G551D): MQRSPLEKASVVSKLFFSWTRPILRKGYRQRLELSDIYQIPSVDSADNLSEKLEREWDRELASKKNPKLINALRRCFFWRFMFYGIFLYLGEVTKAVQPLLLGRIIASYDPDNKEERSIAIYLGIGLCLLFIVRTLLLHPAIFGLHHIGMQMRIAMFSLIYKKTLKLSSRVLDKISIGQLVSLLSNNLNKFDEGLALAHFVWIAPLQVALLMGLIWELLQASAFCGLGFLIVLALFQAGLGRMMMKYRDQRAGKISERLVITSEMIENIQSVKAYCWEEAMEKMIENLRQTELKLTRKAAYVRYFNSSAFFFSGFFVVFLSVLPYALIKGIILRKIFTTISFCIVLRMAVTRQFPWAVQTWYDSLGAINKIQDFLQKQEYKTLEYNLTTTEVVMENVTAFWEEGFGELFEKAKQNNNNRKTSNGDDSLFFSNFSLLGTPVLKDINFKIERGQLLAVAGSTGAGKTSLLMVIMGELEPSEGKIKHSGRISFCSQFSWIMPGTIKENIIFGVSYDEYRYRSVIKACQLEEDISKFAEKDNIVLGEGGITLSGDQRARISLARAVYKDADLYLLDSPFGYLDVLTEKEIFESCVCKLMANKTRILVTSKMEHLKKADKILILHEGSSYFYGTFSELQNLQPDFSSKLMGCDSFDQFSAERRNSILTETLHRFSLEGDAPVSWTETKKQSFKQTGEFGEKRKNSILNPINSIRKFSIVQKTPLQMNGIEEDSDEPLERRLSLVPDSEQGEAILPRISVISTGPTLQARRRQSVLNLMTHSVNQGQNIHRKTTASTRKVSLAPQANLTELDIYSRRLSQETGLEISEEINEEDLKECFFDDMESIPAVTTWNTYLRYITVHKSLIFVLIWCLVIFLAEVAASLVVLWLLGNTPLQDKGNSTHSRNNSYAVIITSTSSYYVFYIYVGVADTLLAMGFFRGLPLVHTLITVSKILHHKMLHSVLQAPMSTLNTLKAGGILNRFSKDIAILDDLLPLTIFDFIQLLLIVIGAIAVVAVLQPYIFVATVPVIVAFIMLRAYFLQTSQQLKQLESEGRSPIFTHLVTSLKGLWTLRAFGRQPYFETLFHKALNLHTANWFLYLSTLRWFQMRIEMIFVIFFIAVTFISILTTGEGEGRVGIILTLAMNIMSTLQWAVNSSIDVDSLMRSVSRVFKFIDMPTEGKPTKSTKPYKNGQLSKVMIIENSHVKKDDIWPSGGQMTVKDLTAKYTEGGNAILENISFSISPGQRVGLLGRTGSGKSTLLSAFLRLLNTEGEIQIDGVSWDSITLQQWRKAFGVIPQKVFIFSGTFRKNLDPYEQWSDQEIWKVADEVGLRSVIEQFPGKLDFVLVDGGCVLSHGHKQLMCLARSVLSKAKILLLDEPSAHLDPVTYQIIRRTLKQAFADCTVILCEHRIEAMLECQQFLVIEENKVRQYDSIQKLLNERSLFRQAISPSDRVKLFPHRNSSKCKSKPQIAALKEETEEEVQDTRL
Method in brief: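 HEK293 cells reverse-transfected with CFTR G551D and YFP H148Q/I152L/F47L halide sensor, expressed 24 h at 37 °C. Iodide-induced fluorescence quench recorded 7 s after I− injection; response = 1−F/F0, with EC50 from plot against compound concentration.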

SMILES | EC50 (CFTR ΔF508 mutant [1]) [nM] | EC50 (CFTR ΔF508 mutant [2]) [nM] | EC50 (CFTR G551D mutant) [nM]
COC1CCN(S(=O)(=O)c2cc(C(N)=O)c(NC(=O)c3ccccc3F)s2)CC1 [Compound 123, 2-(2-fluorobenzamido)-5-(4-methoxypiperidin-1-ylsulfonyl)thiophene-3-carboxamide] | 76.9 | 76.4 | 
CC(C)S(=O)(=O)c1cc(C(N)=O)c(NC(=O)c2ccccc2O)s1 [Compound 197, 2-(2-hydroxybenzaido)-5-(isopropylsulfonyl) thiophene-3-carboxamide] | 91 | 24.8 | 158
COCCN(CC(F)(F)F)S(=O)(=O)c1cc(C(N)=O)c(NC(=O)c2ccccc2F)s1 [Compound 157, 2-(2-fluorobenzamido)-5-(N-(2-methoxyethyl)-N-(2,2,2-trifluoroethy)sulfamoyl) thiophene-3-carboxamide] | 86.5 | 60.9 | 241
NC(=O)c1cc(S(=O)(=O)N2CCC(F)(F)CC2)sc1NC(=O)c1cc(C(F)(F)F)[nH]n1 [Compound 189, N-(3-carbmoyl-5-(4,4-difluoropiperidin-1-ylsulfonyl)thiophen-2-yl)-5-(trifluoromethyl)-1H-pyrazole-3-carboxamide] | 122 |  | 226
NC(=O)c1cc(S(=O)(=O)N2CCOCC2)sc1NC(=O)c1ccc(F)cc1O [Compound 198, 2-(4-fluoro-2-hydroxybenzamido)-5-(morpholinosulfonyl)thiophene-3-carboxamide] | 97.2 | 20.2 | 136
CCN(CC)S(=O)(=O)c1cc(C(N)=O)c(NC(=O)c2ccc(C)s2)s1 [Compound 4, N-(3-carbamoyl-5-(N,N-diethylsulfamoyl)thiophen-2-yl)-5-methylthiophene-2-carboxamide] | 94 | 135 | 
NC(=O)c1cc(S(=O)(=O)c2ccc(F)cc2)sc1NC(=O)c1ccccc1F [Compound 111, 2-(2-fluorobenzamido)-5-(4-fluorophenylsulfonyl) thiophene-3-carboxamide] | 84.3 | 199 | 
CCc1cc(C(=O)Nc2sc(S(=O)(=O)c3cccc(F)c3)cc2C(N)=O)n[nH]1 [Compound 114, N-(3-carbamoyl-5-(3-fluorophenylsulfonyl)thiophen-2-yl)-5-ethyl-1H-pyrazole-3-carboxamide] | 90.7 | 102 | 
CCc1ccccc1S(=O)(=O)c1cc(C(N)=O)c(NC(=O)c2ccccc2F)s1 [Compound 121, 5-(2-ethylphenylsulfonyl)-2-(2-fluorobenzamido) thiophene-3-carboxamide] | 74.9 | 292 | 
CN(CC1CC1)S(=O)(=O)c1cc(C(N)=O)c(NC(=O)c2cc[nH]n2)s1 [Compound 193, N-(3-carbamoyl-5-(N-(cyclopropylmethyl)-N-methylsulfamoyl)thiophen-2-yl)-1H-pyrazole-3-carboxamide] | 114 | 49.5 | 206
NC(=O)c1cc(S(=O)(=O)N2CCC(F)(F)CC2)sc1NC(=O)C1(O)CC1 [Compound 139, 5-(4,4-difluoropiperidin-1-ylsulfonyl)-2-(1-hydroxycyclopropanecarboxamido) thiophene-3-carboxamide] | 114 | 55.5 | 
NC(=O)c1cc(S(=O)(=O)N(Cc2ccc(F)cc2)C2CC2)sc1NC(=O)c1cc[nH]n1 [Compound 191, N-(3-carbamoyl-5-(N-cyclopropyl-N-(4-fluorobenzyl)sulfamoyl)thiophen-2-yl)-1H-pyrazole-3-carboxamide] | 90 | 197 | 245
CC(C)N(C(C)C)S(=O)(=O)c1cc(C(N)=O)c(NC(=O)c2ccccc2F)s1 [Compound 154, 5-(N,N-diisopropylsulfamoyl)-2-(2-fluorobenzamido) thiophene-3-carboxamide] | 105 | 427 | 
COc1ccc(OC)c(S(=O)(=O)c2cc(C(N)=O)c(NC(=O)c3ccccc3F)s2)c1 [Compound 182, 5-(2,5-dimethoxyphenylsulfonyl)-2-(2-fluorobenzamido)thiophene-3-carboxamide] | 97.9 | 433 | 
CCN(C)S(=O)(=O)c1cc(C(N)=O)c(NC(=O)c2ccc(C)s2)s1 [Compound 3, N-(3-carbamoyl-5-(N-ethyl-N-methylsulfamoyl)thiophen-2-yl)-5-methylthiophene-2-carboxamide] | 107 | 109 | 
CCc1cc(C(=O)Nc2sc(S(=O)(=O)c3ccccc3)cc2C(N)=O)n[nH]1 [Compound 95, N-(3-carbamoyl-5-(phenylsulfonyl)thiophen-2-yl)-5-ethyl-1H-pyrazole-3-carboxamide] | 99.4 | 101 | 
NC(=O)c1cc(S(=O)(=O)N2CCCCC2)sc1NC(=O)c1ccn[nH]1 [Compound 36, N-(3-carbamoyl-5-(piperidin-1-ylsulfonyl)thiophen-2-yl)-1H-pyrazole-3-carboxamide] | 92.3 | 13.1 | 

Further molecules by falling EC50 (CFTR ΔF508 mutant [1]), results first:

EC50 (CFTR ΔF508 mutant [1]) [nM] | EC50 (CFTR ΔF508 mutant [2]) [nM] | EC50 (CFTR G551D mutant) [nM] | SMILES
73.5 | 13.4 | 470 | CC(C)N(C)S(=O)(=O)c1cc(C(N)=O)c(NC(=O)c2cc[nH]n2)s1 [Compound 210, N-(3-carbamoyl-5-(N-isopropyl-N-methylsulfamoyl)thiophen-2-yl)-1H-pyrazole-3-carboxamide]
70.7 | 294 | 536 | CC(C)(C)c1cc(C(=O)Nc2sc(S(=O)(=O)N3CCC(F)(F)CC3)cc2C(N)=O)n[nH]1 [Compound 142, 5-tert-butyl-N-(3-carbamoyl-5-(4,4-difluoropiperidin-1-ylsulfonyl)thiophen-2-yl)-1H-pyrazole-3-carboxamide]
59.7 | 63.5 |  | CCc1cc(C(=O)Nc2sc(S(=O)(=O)c3ccccc3F)cc2C(N)=O)n[nH]1 [Compound 116, N-(3-carbamoyl-5-(2-fluorophenylsulfonyl)thiophen-2-yl)-5-ethyl-1H-pyrazole-3-carboxamide]
46 | 46 |  | CC(C)N(C)S(=O)(=O)c1cc(C(N)=O)c(NC(=O)c2ccccc2F)s1 [Compound 153, 2-(2-fluorobenzamido)-5-(N-isopropyl-N-methylsulfamoyl) thiophene-3-carboxamide]
44.1 | 84.3 |  | Cc1c(S(=O)(=O)c2ccccc2)sc(NC(=O)c2ccccc2F)c1C(N)=O [Compound 87, 2-(2-fluorobenzamido)-4-methyl-5-(phenylsulfonyl) thiophene-3-carboxamide]
38 | 184 |  | Cc1ccc(CN(C)S(=O)(=O)c2cc(C(N)=O)c(NC(=O)c3cc[nH]n3)s2)cc1 [Compound 170, N-(3-carbamoyl-5-(N-methyl-N-(4-methylbenzyl)sulfamoyl)thiophen-2-yl)-1H-pyrazole-3-carboxamide]
36 | 9.6 |  | NC(=O)c1cc(S(=O)(=O)c2ccc(F)c(F)c2)sc1NC(=O)c1cc[nH]n1 [Compound 118, N-(3-carbamoyl-5-(3,4-difluorophenylsulfonyl)thiophen-2-yl)-1H-pyrazole-3-carboxamide]
29.3 | 10.3 | 67.4 | NC(=O)c1cc(S(=O)(=O)N2CCC(F)(F)CC2)sc1NC(=O)c1cc[nH]n1 [Compound 140, N-(3-carbamoyl-5-(4,4-difluoropiperidin-1-ylsulfonyl)thiophen-2-yl)-1H-pyrazole-3-carboxamide]
29.2 | 5.8 |  | NC(=O)c1cc(S(=O)(=O)c2cccc(F)c2)sc1NC(=O)c1cc[nH]n1 [Compound 113, N-(3-carbamoyl-5-(3-fluorophenylsulfonyl)thiophen-2-yl)-1H-pyrazole-3-carboxamide]
29.2 | 27.2 | 232 | NC(=O)c1cc(S(=O)(=O)N2CCOCC2)sc1NC(=O)c1ccccc1O [Compound 143, 2-(2-Hydroxy-benzoylamino)-5-(morpholine-4-sulfonyl)-thiophene-3-carboxylic acid amide]
28.6 | 28.9 |  | NC(=O)c1cc(S(=O)(=O)c2ccc(F)cc2)sc1NC(=O)c1ccn[nH]1 [Compound 109, N-(3-carbamoyl-5-(4-fluorophenylsulfonyl)thiophen-2-yl)-1H-pyrazole-3-carboxamide]
21 | 15.8 |  | CN(c1ccc(F)cc1)S(=O)(=O)c1cc(C(N)=O)c(NC(=O)c2cc[nH]n2)s1 [Compound 173, 1H-Pyrazole-3-carboxylic acid {3-carbamoyl-5-[(4-fluoro-phenyl)-methyl-sulfamoyl]-thiophen-2-yl}-amide]
20.5 | 26.8 |  | Cc1c(S(=O)(=O)c2ccccc2)sc(NC(=O)c2cc[nH]n2)c1C(N)=O [Compound 101, N-(3-carbamoyl-4-methyl-5-(phenylsulfonyl)thiophen-2-yl)-1H-pyrazole-3-carboxamide]
19.5 | 71 | 215 | CN(Cc1ccc(F)cc1)S(=O)(=O)c1cc(C(N)=O)c(NC(=O)c2cc[nH]n2)s1 [Compound 145, 1H-Pyrazole-3-carboxylic acid {3-carbamoyl-5-[(4-fluoro-benzyl)-methyl-sulfamoyl]-thiophen-2-yl}-amide]
